Measurements: patent US11931464B2, “Minimizing agglomeration, aeration, and preserving the coating of pharmaceutical compositions comprising ibuprofen” (Catalent U.K. Swindon Zydis Limited, priority 2019, dated 2024)

Legend:
[1] = Aeration of suspension mixes, height of the foam in the mixing vessel; format: physicochemical; conditions: for Foam Height: 0% mix: 5 mm
From the text: (§1) The effectiveness of chemical compounds comprising terpene and/or terpinol at minimizing aeration can be determined in part by measuring the particle size of the hydrophobic coated Ibuprofen in pharmaceutical suspension over time. If the chemical compound is effective, the aeration of the suspension will be adequately low and the particle size of the hydrophobic coated Ibuprofen will remain constant or decrease very little over time. If ineffective, the aeration of the suspension will be higher than desired and the particle size of the hydrophobic coated Ibuprofen can decrease more substantially over time. The extent of aeration of the suspension is assessed by measurement of height of the foam in the mixing vessel. The particle size of the functionally-coated particles can be measured using laser diffraction, a particle analyzer such as a Malvern Mastersizer, or any other suitable means for analyzing fine particles. Example 7: A series of suspension mixes were manufactured by mixing the coated Ibuprofen in the matrix solution/suspension containing various levels of limonene, orange flavor, and strawberry flavor. The height of the foam from these suspension is summarized in Table 7, 8, and 9 respectively.

[2] = Particle size of hydrophobic coated Ibuprofen in suspension with liquid flavor or limonene; format: physicochemical; conditions: 0.25% w/w versus 0.45% w/w and 0.75% w/w, 24 hours
From the text: as §1, with “particles.” for “particles. Example 7: A series of suspension mixes were manufactured by mixing the coated Ibuprofen in the matrix solution/suspension containing various levels of limonene, orange flavor, and strawberry flavor. The height of the foam from these suspension is summarized in Table 7, 8, and 9 respectively.”
Example 8: FIGS. 10, 11, and 12 show the decrease in particle size (d10, d50, and d90, respectively) of hydrophobic coated Ibuprofen in a pharmaceutical suspension comprising various concentrations of liquid orange flavor. A particle size expressed in terms of its d10 means that 10 percent of the particles in a given volume of sample lie below a given particle size. […]

For `C=C(C)[C@H]1CC=C(C)CC1` [limonene], the “Aeration of the suspension” value ([1]; 0.25% w/w) was “sufficiently low amount of aeration”, the “Foam Height” value ([1]; 0.30% w/w in mix with coated Ibuprofen) was 1 mm and the “Foam Height” value ([1]; 0.6% w/w in mix with coated Ibuprofen) was 1 mm. For the same compound, the “Foam Height” value ([1]; […] w/w in mix with coated Ibuprofen) was 2 mm, the Effect on aeration ([1]; level […] w/w and above) was “minimize the aeration” and the “Effect on the coating (particle size d10, d50, d90)” value [2] was “much less deleterious effect”.
